Values after ≈ are worked out from the molar mass of the structure shown. ± gives the standard deviation of the averaged measurements.
Tests used:
Experiment in all cases: minimum inhibitory concentration (MIC)
Conditions in all cases: incubation time: 18 h
[1] = system: Burkholderia cepacia ISS isolate s15
[2] = system: Burkholderia cepacia ISS isolate s37
[3] = system: Burkholderia cepacia ATCC25416
[4] = system: Burkholderia cepacia ISS isolate s57
[5] = system: Burkholderia cepacia ISS isolate s16
[6] = system: Burkholderia contaminans ISS isolate s56
[7] = system: Burkholderia cepacia ISS isolate s12
[8] = system: Burkholderia cepacia ISS isolate s31
[9] = system: Burkholderia cepacia ISS isolate s22
[10] = system: Burkholderia cepacia ISS isolate s28
[11] = system: Burkholderia cepacia ISS isolate s23
[12] = system: Burkholderia cepacia ISS isolate s20
[13] = system: Burkholderia cepacia ISS isolate s41
[14] = system: Burkholderia contaminans J2956
[15] = system: Burkholderia cepacia ISS isolate s36
[16] = system: Burkholderia cepacia ISS isolate s25
[17] = system: Burkholderia cepacia ISS isolate s39
[18] = system: Burkholderia cepacia ISS isolate s18
[19] = system: Burkholderia contaminans ISS isolate s54
[20] = system: Burkholderia contaminans ISS isolate s53
[21] = system: Burkholderia cepacia ISS isolate s24
[22] = system: Burkholderia cepacia ISS isolate s33
[23] = system: Burkholderia cepacia ISS isolate s35
[24] = system: Burkholderia contaminans ISS isolate s52
[25] = system: Burkholderia contaminans ISS isolate s47
[26] = system: Burkholderia cepacia ISS isolate s9

SMILES	minimum inhibitory concentration [1]	minimum inhibitory concentration [2]	minimum inhibitory concentration [3]	minimum inhibitory concentration [4]	minimum inhibitory concentration [5]	minimum inhibitory concentration [6]	minimum inhibitory concentration [7]	minimum inhibitory concentration [8]	minimum inhibitory concentration [9]	minimum inhibitory concentration [10]	minimum inhibitory concentration [11]	minimum inhibitory concentration [12]	minimum inhibitory concentration [13]	minimum inhibitory concentration [14]	minimum inhibitory concentration [15]	minimum inhibitory concentration [16]	minimum inhibitory concentration [17]	minimum inhibitory concentration [18]	minimum inhibitory concentration [19]	minimum inhibitory concentration [20]	minimum inhibitory concentration [21]	minimum inhibitory concentration [22]	minimum inhibitory concentration [23]	minimum inhibitory concentration [24]	minimum inhibitory concentration [25]	minimum inhibitory concentration [26]
CO/N=C(\C(=O)N[C@@H]1C(=O)N2C(C(=O)O)=C(COC(C)=O)CS[C@H]12)c1csc(N)n1 [cefotaxime]	16 µg/mL (≈ 35.1 µM)	20.2 ± 9.2 µg/mL (≈ 44.3 µM)	20.2 ± 9.2 µg/mL (≈ 44.3 µM)	11.3 ± 5.7 µg/mL (≈ 24.8 µM)	20.2 ± 9.2 µg/mL (≈ 44.3 µM)	> 64 µg/mL	16 ± 12 µg/mL (≈ 35.1 µM)	25.4 ± 9.2 µg/mL (≈ 55.8 µM)	20.2 ± 9.2 µg/mL (≈ 44.3 µM)	20.2 ± 9.2 µg/mL (≈ 44.3 µM)	20.2 ± 9.2 µg/mL (≈ 44.3 µM)	20.2 ± 9.2 µg/mL (≈ 44.3 µM)	12.7 ± 14 µg/mL (≈ 27.9 µM)	> 64 µg/mL	16 ± 12 µg/mL (≈ 35.1 µM)	12.7 ± 14 µg/mL (≈ 27.9 µM)	12.7 ± 14 µg/mL (≈ 27.9 µM)	20.2 ± 9.2 µg/mL (≈ 44.3 µM)	> 64 µg/mL	> 64 µg/mL	20.2 ± 9.2 µg/mL (≈ 44.3 µM)	20.2 ± 9.2 µg/mL (≈ 44.3 µM)	16 ± 12 µg/mL (≈ 35.1 µM)	> 64 µg/mL	> 64 µg/mL	20.2 ± 9.2 µg/mL (≈ 44.3 µM)
CC(C)(O/N=C(\C(=O)N[C@@H]1C(=O)N2C(C(=O)[O-])=C(C[n+]3ccccc3)CS[C@H]12)c1csc(N)n1)C(=O)O [ceftazidime]	4.58 ± 1.1 µg/mL (≈ 8.38 µM)	2 ± 2 µg/mL (≈ 3.66 µM)	12.7 ± 4.6 µg/mL (≈ 23.2 µM)	3.17 ± 1.1 µg/mL (≈ 5.81 µM)	4 µg/mL (≈ 7.32 µM)	8 µg/mL (≈ 14.6 µM)	4 µg/mL (≈ 7.32 µM)	4 µg/mL (≈ 7.32 µM)	4 µg/mL (≈ 7.32 µM)	4 µg/mL (≈ 7.32 µM)	4 µg/mL (≈ 7.32 µM)	4 µg/mL (≈ 7.32 µM)	3.17 ± 1.1 µg/mL (≈ 5.81 µM)	8 µg/mL (≈ 14.6 µM)	4 µg/mL (≈ 7.32 µM)	4 µg/mL (≈ 7.32 µM)	3.17 ± 1.1 µg/mL (≈ 5.81 µM)	4 µg/mL (≈ 7.32 µM)	8 µg/mL (≈ 14.6 µM)	8 µg/mL (≈ 14.6 µM)	4 µg/mL (≈ 7.32 µM)	4 µg/mL (≈ 7.32 µM)	3.17 ± 1.1 µg/mL (≈ 5.81 µM)	8 µg/mL (≈ 14.6 µM)	8 µg/mL (≈ 14.6 µM)	4 µg/mL (≈ 7.32 µM)
O=C(N[C@H](CO)[C@H](O)c1ccc([N+](=O)[O-])cc1)C(Cl)Cl [chloramphenicol]	5.04 ± 2.3 µg/mL (≈ 15.6 µM)	5.04 ± 3.5 µg/mL (≈ 15.6 µM)	6.35 ± 2.3 µg/mL (≈ 19.7 µM)	8 µg/mL (≈ 24.8 µM)	9.28 ± 2.6 µg/mL (≈ 28.7 µM)	6.35 ± 2.3 µg/mL (≈ 19.7 µM)	7.37 ± 4.2 µg/mL (≈ 22.8 µM)	5.85 ± 4.9 µg/mL (≈ 18.1 µM)	7.37 ± 12 µg/mL (≈ 22.8 µM)	5.85 ± 4.9 µg/mL (≈ 18.1 µM)	–	11.7 ± 9.8 µg/mL (≈ 36.2 µM)	4 ± 3.1 µg/mL (≈ 12.4 µM)	8 µg/mL (≈ 24.8 µM)	8 ± 16 µg/mL (≈ 24.8 µM)	5.85 ± 4.9 µg/mL (≈ 18.1 µM)	4 ± 3.1 µg/mL (≈ 12.4 µM)	9.28 ± 2.6 µg/mL (≈ 28.7 µM)	8 µg/mL (≈ 24.8 µM)	8 µg/mL (≈ 24.8 µM)	9.28 ± 11 µg/mL (≈ 28.7 µM)	5.04 ± 2.3 µg/mL (≈ 15.6 µM)	5.04 ± 2.3 µg/mL (≈ 15.6 µM)	8 µg/mL (≈ 24.8 µM)	5.04 ± 2.3 µg/mL (≈ 15.6 µM)	4.64 ± 5.6 µg/mL (≈ 14.4 µM)
C[C@H]1COc2c(N3CCN(C)CC3)c(F)cc3c(=O)c(C(=O)O)cn1c23 [levofloxacin]	1 µg/mL (≈ 2.77 µM)	1.26 ± 0.58 µg/mL (≈ 3.49 µM)	0.63 ± 0.43 µg/mL (≈ 1.74 µM)	0.63 ± 0.29 µg/mL (≈ 1.74 µM)	–	0.5 µg/mL (≈ 1.38 µM)	–	8 ± 6.1 µg/mL (≈ 22.1 µM)	8 ± 6.1 µg/mL (≈ 22.1 µM)	10.1 ± 15 µg/mL (≈ 27.9 µM)	8 ± 6.1 µg/mL (≈ 22.1 µM)	–	–	0.5 µg/mL (≈ 1.38 µM)	1.26 ± 0.87 µg/mL (≈ 3.49 µM)	6.35 ± 2.3 µg/mL (≈ 17.6 µM)	–	–	0.315 ± 0.14 µg/mL (≈ 0.872 µM)	0.5 µg/mL (≈ 1.38 µM)	10.1 ± 15 µg/mL (≈ 27.9 µM)	1 µg/mL (≈ 2.77 µM)	1.59 ± 1.7 µg/mL (≈ 4.39 µM)	0.5 µg/mL (≈ 1.38 µM)	0.5 µg/mL (≈ 1.38 µM)	6.35 ± 2.3 µg/mL (≈ 17.6 µM)
C[C@@H](O)[C@H]1C(=O)N2C(C(=O)O)=C(S[C@@H]3CN[C@H](C(=O)N(C)C)C3)[C@H](C)[C@H]12 [meropenem]	–	32 µg/mL (≈ 83.4 µM)	16 ± 12 µg/mL (≈ 41.7 µM)	5.04 ± 2.3 µg/mL (≈ 13.1 µM)	10.1 ± 6.9 µg/mL (≈ 26.3 µM)	5.04 ± 2.3 µg/mL (≈ 13.1 µM)	20.2 ± 9.2 µg/mL (≈ 52.6 µM)	25.4 ± 9.2 µg/mL (≈ 66.2 µM)	2 ± 1.5 µg/mL (≈ 5.22 µM)	25.4 ± 9.2 µg/mL (≈ 66.2 µM)	20.2 ± 14 µg/mL (≈ 52.6 µM)	12.7 ± 14 µg/mL (≈ 33.1 µM)	–	4 µg/mL (≈ 10.4 µM)	–	20.2 ± 9.2 µg/mL (≈ 52.6 µM)	–	12.7 ± 14 µg/mL (≈ 33.1 µM)	4 µg/mL (≈ 10.4 µM)	4 µg/mL (≈ 10.4 µM)	20.2 ± 14 µg/mL (≈ 52.6 µM)	–	32 µg/mL (≈ 83.4 µM)	4 µg/mL (≈ 10.4 µM)	4 µg/mL (≈ 10.4 µM)	32 µg/mL (≈ 83.4 µM)
CN(C)c1ccc(O)c2c1C[C@H]1C[C@H]3[C@H](N(C)C)C(O)=C(C(N)=O)C(=O)[C@@]3(O)C(O)=C1C2=O [minocycline]	12.7 ± 4.6 µg/mL (≈ 27.8 µM)	6.35 ± 2.3 µg/mL (≈ 13.9 µM)	1.59 ± 0.58 µg/mL (≈ 3.47 µM)	2 µg/mL (≈ 4.37 µM)	5.04 ± 3.5 µg/mL (≈ 11 µM)	2.52 ± 1.1 µg/mL (≈ 5.51 µM)	3.17 ± 1.1 µg/mL (≈ 6.94 µM)	4 µg/mL (≈ 8.74 µM)	6.35 ± 2.3 µg/mL (≈ 13.9 µM)	10.1 ± 15 µg/mL (≈ 22 µM)	8 ± 6.1 µg/mL (≈ 17.5 µM)	6.35 ± 7 µg/mL (≈ 13.9 µM)	8 ± 6.1 µg/mL (≈ 17.5 µM)	2 µg/mL (≈ 4.37 µM)	6.35 ± 6.9 µg/mL (≈ 13.9 µM)	8 ± 6.1 µg/mL (≈ 17.5 µM)	6.35 ± 6.9 µg/mL (≈ 13.9 µM)	6.35 ± 7 µg/mL (≈ 13.9 µM)	2 µg/mL (≈ 4.37 µM)	2 µg/mL (≈ 4.37 µM)	12.7 ± 14 µg/mL (≈ 27.8 µM)	12.7 ± 4.6 µg/mL (≈ 27.8 µM)	8 µg/mL (≈ 17.5 µM)	2 µg/mL (≈ 4.37 µM)	3.17 ± 3.5 µg/mL (≈ 6.94 µM)	6.35 ± 6.9 µg/mL (≈ 13.9 µM)
COc1cc(Cc2cnc(N)nc2N)cc(OC)c1OC.Cc1cc(NS(=O)(=O)c2ccc(N)cc2)no1 [trimethoprim/sulfamethoxazole]	25.4 ± 9.2 µg/mL	32 µg/mL	20.2 ± 9.2 µg/mL	16 µg/mL	20.2 ± 14 µg/mL	10.1 ± 4.6 µg/mL	12.7 ± 4.6 µg/mL	20.2 ± 9.2 µg/mL	20.2 ± 9.2 µg/mL	25.4 ± 9.2 µg/mL	25.4 ± 9.2 µg/mL	25.4 ± 9.2 µg/mL	25.4 ± 9.2 µg/mL	8 µg/mL	32 µg/mL	22.6 ± 11 µg/mL	20.2 ± 9.2 µg/mL	12.7 ± 14 µg/mL	6.35 ± 2.3 µg/mL	8 µg/mL	–	25.4 ± 9.2 µg/mL	32 µg/mL	6.35 ± 2.3 µg/mL	8 µg/mL	–
